Laboratory results taken from US11072616B2, “Cyclic peptides targeting alpha-4-beta-7 integrin” (Zealand Pharma A/S, priority 2015, dated 2021).

Experiments:
integrin α4β7 = target: T1, integrin α4β7 (Homo sapiens, UniProt P13612+P26010); test: Integrin α4β7—MAdCAM-1 competition assay (ELISA); type: binding; conditions: ratio a4b1 ELISA IC50 / a4b7 ELISA IC50
T1 sequence (P13612 34-977 limits assumed): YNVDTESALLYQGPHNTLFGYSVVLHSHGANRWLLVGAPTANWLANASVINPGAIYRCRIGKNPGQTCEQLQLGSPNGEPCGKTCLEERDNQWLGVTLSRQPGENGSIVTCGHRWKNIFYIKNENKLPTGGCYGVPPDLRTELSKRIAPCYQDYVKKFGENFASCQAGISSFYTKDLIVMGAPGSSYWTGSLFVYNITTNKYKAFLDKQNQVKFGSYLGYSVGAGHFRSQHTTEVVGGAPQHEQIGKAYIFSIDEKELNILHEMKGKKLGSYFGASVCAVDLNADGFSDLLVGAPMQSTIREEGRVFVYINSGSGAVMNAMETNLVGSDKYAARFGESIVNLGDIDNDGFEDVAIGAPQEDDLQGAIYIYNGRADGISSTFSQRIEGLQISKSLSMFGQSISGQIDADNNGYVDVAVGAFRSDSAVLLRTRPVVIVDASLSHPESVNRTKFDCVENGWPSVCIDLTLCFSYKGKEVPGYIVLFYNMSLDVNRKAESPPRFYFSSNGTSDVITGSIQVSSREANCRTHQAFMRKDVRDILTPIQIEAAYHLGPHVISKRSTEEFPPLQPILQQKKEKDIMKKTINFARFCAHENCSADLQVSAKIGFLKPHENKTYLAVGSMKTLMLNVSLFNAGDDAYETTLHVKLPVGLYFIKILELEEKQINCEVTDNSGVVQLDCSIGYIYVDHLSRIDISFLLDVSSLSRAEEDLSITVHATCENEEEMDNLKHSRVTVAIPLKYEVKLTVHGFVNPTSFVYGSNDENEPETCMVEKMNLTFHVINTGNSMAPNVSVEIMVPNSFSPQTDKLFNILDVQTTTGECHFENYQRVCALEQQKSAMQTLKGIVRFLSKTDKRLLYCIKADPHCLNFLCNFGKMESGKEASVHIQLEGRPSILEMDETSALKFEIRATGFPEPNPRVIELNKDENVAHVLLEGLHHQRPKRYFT
T1 sequence (P26010 20-723 limits assumed): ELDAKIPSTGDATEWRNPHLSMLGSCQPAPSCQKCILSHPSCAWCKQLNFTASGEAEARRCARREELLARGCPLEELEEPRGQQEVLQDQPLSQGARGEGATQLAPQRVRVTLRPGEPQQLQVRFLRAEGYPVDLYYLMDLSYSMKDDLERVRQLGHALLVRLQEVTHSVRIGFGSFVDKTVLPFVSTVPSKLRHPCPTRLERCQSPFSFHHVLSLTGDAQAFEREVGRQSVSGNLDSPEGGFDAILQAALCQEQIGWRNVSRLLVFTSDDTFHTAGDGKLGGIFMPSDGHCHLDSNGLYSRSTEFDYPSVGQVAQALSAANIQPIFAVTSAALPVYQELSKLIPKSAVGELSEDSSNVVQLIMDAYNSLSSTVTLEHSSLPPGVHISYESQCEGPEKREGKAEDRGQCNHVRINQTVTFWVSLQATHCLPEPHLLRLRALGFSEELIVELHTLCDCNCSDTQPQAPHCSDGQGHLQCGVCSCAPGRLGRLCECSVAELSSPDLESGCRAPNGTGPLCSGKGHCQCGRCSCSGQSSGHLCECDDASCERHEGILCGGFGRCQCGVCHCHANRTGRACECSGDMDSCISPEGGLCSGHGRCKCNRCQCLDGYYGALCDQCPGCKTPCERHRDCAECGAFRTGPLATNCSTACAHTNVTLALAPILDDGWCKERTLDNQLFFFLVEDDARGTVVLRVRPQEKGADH
In short: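 Competitive ELISA in which serially diluted compound was incubated with the receptor system for 2 h at room temperature to equilibrium. Wash buffer contained 1 mM MnCl2. Bound Fc-tagged partner was detected with anti-human IgG Fc-HRP and TMB.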

Aqueous solubility assay = type: physicochemical; conditions: PBS pH 7.4, 4 h, room temperature; for Determined concentration Mean: mean of 3, maximal concentration evaluated 200, 500 or 1000 μM; for Determined concentration Rep 1: replicate 1; for Determined concentration Rep 2: replicate 2; for Determined concentration Rep 3: replicate 3
Protocol: Solutions were incubated for four hours at room temperature and stirred at 600 rpm and run in triplicate. Centrifugation was performed for 15 minutes at 6000 rpm and solution concentration was determined using HPLC-UV (photodiode array detector acquiring between 220 nm, and 300 nm wavelengths).

[1] = Plasma protein binding, equilibrium dialysis, mouse plasma; conditions: for fraction unbound at 5 h, 1 microM: 50% plasma
Protocol: (§1) An equilibrium dialysis (HTDialysis) method was used employing 50% plasma collected from CD-1 mice or Sprague-Dawley rats and incubated with K2EDTA. Test articles were assessed at 1 microM concentration in three replicates. Incubation time as 5 hours and plasma and buffer standards were assessed using LC/MS/MS. Percentage recovery was calculated as (Cbuffer+Cplasma)/[average]Cinitial, [average]Cinitial being measured in triplicate from the test samples prior to dialysis. Percentage of compound unbound was calculated as Cbuffer/Cplasma.

[2] = Plasma protein binding, equilibrium dialysis, rat plasma; conditions: for fraction unbound at 5 h, 1 microM: 50% plasma
Protocol: as §1

[3] = not given; remark: listed apart in the source

In the case of `CC(C)C[C@@H]1NC(=O)c2cccc(c2)CNC(=O)[C@@H]2CCCN2[C@H](C(=O)NC(C)(C)C)[C@H](C)NC(=O)[C@H]([C@@H](C)O)NC(=O)[C@H](CC(=O)O)NC1=O` [UM0134690-01], the “Selectivity ELISA” value (integrin α4β7) was 8.7, the “Determined concentration Mean” value (Aqueous solubility assay) was 942.9 µM and the “Determined concentration Rep 1” value (Aqueous solubility assay) was 957.3 µM. For the same compound, the “Determined concentration Rep 2” value (Aqueous solubility assay) was 950.5 µM and the “Determined concentration Rep 3” value (Aqueous solubility assay) was 920.8 µM.
In the case of `CC(C)C[C@@H]1NC(=O)[C@H](CCCN)NC(=O)[C@@H]2CCCN2[C@H](C(=O)NC(C)(C)C)[C@H](C)NC(=O)[C@H]([C@@H](C)O)NC(=O)[C@H](CC(=O)O)NC1=O` [UM0132377-01], the “Determined concentration Mean” value (Aqueous solubility assay) was 218.6 µM, the “Determined concentration Rep 1” value (Aqueous solubility assay) was 225.7 µM and the “Determined concentration Rep 2” value (Aqueous solubility assay) was 218.9 µM. For the same compound, the “Determined concentration Rep 3” value (Aqueous solubility assay) was 211.2 µM.
In the case of `CC[C@H](C)[C@@H]1NC(=O)[C@H](CC(=O)O)NC(=O)[C@H](CC(C)C)NC(=O)[C@H](Cc2ccc3ccccc3c2)NC(=O)[C@@H]2CCCN2[C@H](C(=O)NC(C)(C)C)[C@H](C)NC1=O` [ET01827], the “Control buffer/Buffer at 0.1 uM Cdonor/Creceiver” value ([1]; buffer/buffer control, 0.1 uM) was 86%, the “% recovery” value ([1]; mouse plasma dialysis) was 103% and the “% recovery” value ([2]; rat plasma dialysis) was 143%. For the same compound, the “% unbound (Cbuffer/Cplasma) Rat plasma 1” value was 16.2%, the “% unbound (Cbuffer/Cplasma) Rat plasma 2” value was 17.4% and the “% unbound (Cbuffer/Cplasma) Rat plasma Average” value was 15.7%. The “% unbound (Cbuffer/Cplasma) Mouse plasma 3” value [3] was 9.3% and the “% unbound (Cbuffer/Cplasma) Mouse plasma Average” value [3] was 9.5%.
With `CC(C)C[C@@H]1NC(=O)[C@H](Cc2cscn2)NC(=O)[C@@H]2CCCN2[C@H](C(=O)NC(C)(C)C)[C@H](C)NC(=O)[C@H]([C@@H](C)O)NC(=O)[C@H](CC(=O)O)NC1=O` [UM0132370-01] the “Determined concentration Mean” value (Aqueous solubility assay) was 183.2 µM, the “Determined concentration Rep 1” value (Aqueous solubility assay) was 187.0 µM and the “Determined concentration Rep 2” value (Aqueous solubility assay) was 182.4 µM. The “Determined concentration Rep 3” value (Aqueous solubility assay) was 180.2 µM.
With `CC(C)C[C@@H]1NC(=O)[C@H](Cc2ccc(O)cc2)NC(=O)[C@H](C)NC(=O)[C@@H]2CCCN2[C@H](C(=O)NC(C)(C)C)[C@H](C)NC(=O)[C@H]([C@@H](C)O)NC(=O)[C@H](CC(=O)O)NC1=O` [UM0134830-01] the “Determined concentration Mean” value (Aqueous solubility assay) was 1000.0 µM, the “Determined concentration Rep 1” value (Aqueous solubility assay) was 1012.0 µM and the “Determined concentration Rep 2” value (Aqueous solubility assay) was 1016.4 µM. The “Determined concentration Rep 3” value (Aqueous solubility assay) was 971.7 µM.
With `CC(C)C[C@@H]1NC(=O)C2(CCCC2)NC(=O)[C@@H]2CCCN2[C@H](C(=O)NC(C)(C)C)[C@H](C)NC(=O)[C@H]([C@@H](C)O)NC(=O)[C@H](CC(=O)O)NC1=O` [UM0132368-01] the “Selectivity ELISA” value (integrin α4β7) was 14.9, the “Determined concentration Mean” value (Aqueous solubility assay) was 926.3 µM and the “Determined concentration Rep 1” value (Aqueous solubility assay) was 926.3 µM. For the same compound, the “Determined concentration Rep 2” value (Aqueous solubility assay) was 917.9 µM and the “Determined concentration Rep 3” value (Aqueous solubility assay) was 934.3 µM.
With `CSCC[C@@H]1NC(=O)[C@@H]2CCCN2[C@H](C(=O)NC(C)(C)C)[C@H](C)NC(=O)[C@H]([C@@H](C)O)NC(=O)[C@H](CC(=O)O)NC(=O)[C@H](CC(C)C)NC1=O` [UM0132374-01] the “Determined concentration Mean” value (Aqueous solubility assay) was 183.1 µM, the “Determined concentration Rep 1” value (Aqueous solubility assay) was 179.4 µM and the “Determined concentration Rep 2” value (Aqueous solubility assay) was 184.0 µM. For the same compound, the “Determined concentration Rep 3” value (Aqueous solubility assay) was 185.9 µM.
With `CC(C)C[C@@H]1NC(=O)C2(Cc3ccccc3C2)NC(=O)[C@@H]2CCCN2[C@H](C(=O)NC(C)(C)C)[C@H](C)NC(=O)[C@H]([C@@H](C)O)NC(=O)[C@H](CC(=O)O)NC1=O` [UM0132369-01] the “Selectivity ELISA” value (integrin α4β7) was 14.4, the “Determined concentration Mean” value (Aqueous solubility assay) was 882.5 µM and the “Determined concentration Rep 1” value (Aqueous solubility assay) was 874.4 µM. For the same compound, the “Determined concentration Rep 2” value (Aqueous solubility assay) was 885.9 µM and the “Determined concentration Rep 3” value (Aqueous solubility assay) was 887.3 µM.
With `C=CCOc1ccc(C[C@@H]2NC(=O)[C@@H]3CCCN3[C@H](C(=O)NC(C)(C)C)[C@H](C)NC(=O)[C@H]([C@@H](C)O)NC(=O)[C@H](CC(=O)O)NC(=O)[C@H](CC(C)C)NC2=O)cc1` [UM0132371-01] the “Determined concentration Mean” value (Aqueous solubility assay) was 834.5 µM, the “Determined concentration Rep 1” value (Aqueous solubility assay) was 786.7 µM and the “Determined concentration Rep 2” value (Aqueous solubility assay) was 837.3 µM. For the same compound, the “Determined concentration Rep 3” value (Aqueous solubility assay) was 879.6 µM.
Compound `CC(C)NCC(O)COc1cccc2ccccc12` (stereo not drawn) [Propranolol, reference compound] has a recovery at 5 h, 1 microM ([1]; CD-1, mouse, 50% plasma (K2EDTA)) of 93%, a fraction unbound at 5 h, 1 microM ([1]; CD-1, mouse, % unbound (Cbuffer/Cplasma) Mouse plasma 1, replicate 1, 1 microM, 5 h) of 0.229 and a fraction unbound at 5 h, 1 microM ([1]; CD-1, mouse, % unbound (Cbuffer/Cplasma) Mouse plasma 2, replicate 2, 1 microM, 5 h) of 0.201. It also gave a fraction unbound at 5 h, 1 microM ([1]; CD-1, mouse, % unbound (Cbuffer/Cplasma) Mouse plasma 3, replicate 3, 1 microM, 5 h) of 0.201, a fraction unbound at 5 h, 1 microM ([1]; CD-1, mouse, % unbound (Cbuffer/Cplasma) Mouse plasma Average, average of 3 replicates) of 0.21 and a fraction unbound at 5 h, 1 microM ([1]; CD-1, mouse, free fraction (% unbound), mouse plasma) of about 0.21. It also gave a recovery at 5 h, 1 microM ([2]; Sprague-Dawley, rat, 50% plasma (K2EDTA)) of 79%, a fraction unbound at 5 h, 1 microM ([2]; Sprague-Dawley, rat, % unbound (Cbuffer/Cplasma) Rat plasma 1, replicate 1, 1 microM, 5 h) of 0.146 and a fraction unbound at 5 h, 1 microM ([2]; Sprague-Dawley, rat, % unbound (Cbuffer/Cplasma) Rat plasma 2, replicate 2, 1 microM, 5 h) of 0.147. The fraction unbound at 5 h, 1 microM ([2]; Sprague-Dawley, rat, % unbound (Cbuffer/Cplasma) Rat plasma 3, replicate 3, 1 microM, 5 h) was 0.147, the fraction unbound at 5 h, 1 microM ([2]; Sprague-Dawley, rat, % unbound (Cbuffer/Cplasma) Rat plasma Average, average of 3 replicates) was 0.147 and the fraction unbound at 5 h, 1 microM ([2]; Sprague-Dawley, rat, free fraction (% unbound), rat plasma) was about 0.15.
With `CC(C)C[C@@H]1NC(=O)[C@H](Cc2ccc(O)cc2)NC(=O)[C@@H]2CCCN2[C@H](C(=O)NC(C)(C)C)[C@H](C)NC(=O)[C@H]([C@@H](C)O)NC(=O)[C@H](CC(=O)O)NC1=O` [UM0131995-05] the “Determined concentration Mean” value (Aqueous solubility assay) was 898.5 µM, the “Determined concentration Rep 1” value (Aqueous solubility assay) was 883.9 µM and the “Determined concentration Rep 2” value (Aqueous solubility assay) was 897.3 µM. The “Determined concentration Rep 3” value (Aqueous solubility assay) was 914.7 µM.
For `CC(C)C[C@@H]1NC(=O)[C@@H](Cc2ccncc2)NC(=O)[C@@H]2CCCN2[C@H](C(=O)NC(C)(C)C)[C@H](C)NC(=O)[C@H]([C@@H](C)O)NC(=O)[C@H](CC(=O)O)NC1=O` [UM0134700-01], the “Determined concentration Mean” value (Aqueous solubility assay) was 994.5 µM, the “Determined concentration Rep 1” value (Aqueous solubility assay) was 1044.8 µM and the “Determined concentration Rep 2” value (Aqueous solubility assay) was 933.2 µM. The “Determined concentration Rep 3” value (Aqueous solubility assay) was 950.6 µM.
